# Values of other authors, collected in publication PMC8491563 (Journal of controlled release : official journal of the …, 2020).
# Tested on: CCR2
# Conditions: in conjunction with nab-paclitaxel/gemcitabine, 21 treated patients
smiles,measurement,value
O=C(NCC(=O)N1CC[C@H](N[C@H]2CC[C@@](O)(c3ccc(-c4ncccn4)cn3)CC2)C1)c1cccc(C(F)(F)F)c1 [PF-04136309],patients responding with a reduction in tumor size compared to the baseline,23.8%
